Results published in US11110082B2, “Tyrosine kinase inhibitors” (Rigel Pharmaceuticals, Inc., priority 2016, dated 2021).

target: T1, MerTK (Homo sapiens, UniProt Q12866); test: PAKT HTRF-HUVEC assay (pAkt Ser473 HTRF after anti-human MerTK-XL stimulation); assay type: cell-based; settings: HUVEC cells, 1 hour compound, stimulated with anti-human MerTK-XL 1 ug/mL for 10 minutes, read-out: inhibition of MerTK
T1 construct: Seed HUVECs (10K cells/well) in EBM-2 complete media; host or cells: HUVEC (primary human umbilical vein endothelial cells)
T1 sequence (Q12866 21-999): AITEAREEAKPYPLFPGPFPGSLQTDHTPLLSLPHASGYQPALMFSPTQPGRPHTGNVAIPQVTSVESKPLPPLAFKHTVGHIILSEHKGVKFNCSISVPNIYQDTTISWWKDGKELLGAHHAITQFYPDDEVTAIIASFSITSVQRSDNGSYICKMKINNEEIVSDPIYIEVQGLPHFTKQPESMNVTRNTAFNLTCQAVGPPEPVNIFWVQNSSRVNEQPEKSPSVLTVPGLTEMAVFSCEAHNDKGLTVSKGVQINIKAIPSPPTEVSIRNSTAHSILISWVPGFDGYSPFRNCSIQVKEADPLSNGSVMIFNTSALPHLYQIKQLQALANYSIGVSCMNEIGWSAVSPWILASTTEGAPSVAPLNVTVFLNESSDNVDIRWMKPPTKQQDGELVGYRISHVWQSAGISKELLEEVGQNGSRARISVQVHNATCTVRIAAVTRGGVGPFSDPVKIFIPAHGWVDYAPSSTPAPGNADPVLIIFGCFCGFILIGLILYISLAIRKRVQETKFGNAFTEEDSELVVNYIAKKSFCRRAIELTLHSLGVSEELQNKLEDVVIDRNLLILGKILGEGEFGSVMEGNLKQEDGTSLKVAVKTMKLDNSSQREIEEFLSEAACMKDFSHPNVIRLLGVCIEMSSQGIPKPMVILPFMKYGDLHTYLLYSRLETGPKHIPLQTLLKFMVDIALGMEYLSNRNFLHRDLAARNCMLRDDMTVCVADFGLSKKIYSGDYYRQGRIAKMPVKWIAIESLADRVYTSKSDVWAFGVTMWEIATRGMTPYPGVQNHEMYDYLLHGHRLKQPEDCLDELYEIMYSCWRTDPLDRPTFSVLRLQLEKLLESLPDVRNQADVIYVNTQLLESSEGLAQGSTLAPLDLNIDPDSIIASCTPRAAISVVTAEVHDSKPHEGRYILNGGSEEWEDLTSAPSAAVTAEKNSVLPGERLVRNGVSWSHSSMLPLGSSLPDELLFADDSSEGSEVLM
Method in brief: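 Akt Ser473 phosphorylation measured by HTRF in lysates of serum-starved HUVECs. Cells received compound for 1 h at 37° C before a 10-min challenge with antibody-cross-linked anti-MerTK (1 ug/mL final); EC50 derived by curve fit.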

EC50 [nM]	Compound
9	CCCCNc1ncc2c3ccc(N4C[C@@H](C)N(C)C[C@@H]4C)cc3c(=O)n([C@H]3CC[C@H](O)CC3)c2n1 [Compound 78, trans-3-(Butylamino)-5-(4-hydroxycyclohexyl)-8-((2S,5R)-2,4,5-trimethylpiperazin-1-yl)pyrimido[4,5-c]isoquinolin-6(5H)-one]
156	CCCCNc1ncc2c3ccc(N4C[C@@H](C)N(C)C[C@@H]4C)cc3c(=O)n(C3CCC(=O)CC3)c2n1 [Compound 79, 3-(Butylamino)-5-(4-oxocyclohexyl)-8-((2S,5R)-2,4,5-trimethylpiperazin-1-yl)pyrimido[4,5-c]isoquinolin-6(5H)-one]
34.5	CCCCNc1ncc2c3ccc(N4CCn5ncnc5C4)cc3c(=O)n([C@H]3CC[C@H](O)CC3)c2n1 [Compound 80, trans-3-(Butylamino)-8-(5,6-dihydro-[1,2,4]triazolo[1,5-a]pyrazin-7(8H)-yl)-5-(4-hydroxycyclohexyl)pyrimido [4,5-c]isoquinolin-6(5H)-one]
13.9	CCCCNc1ncc2c3ccc(N4CCN5CCC4CC5)cc3c(=O)n([C@H]3CC[C@H](O)CC3)c2n1 [Compound 81, trans-8-(1,4-Diazabicyclo[3.2.2]nonan-4-yl)-3-(butylamino)-5-(4-hydroxycyclohexyl)pyrimido[4,5-c]isoquinolin-6(5H)-one]
216	CCCCNc1ncc2c3ccc(N4CCN5CCC4CC5)cc3c(=O)n(C3CCC(=O)CC3)c2n1 [Compound 82, 8-(1,4-Diazabicyclo[3.2.2]nonan-4-yl)-3-(butylamino)-5-(4-oxocyclohexyl)pyrimido[4,5-c]isoquinolin-6(5H)-one]
31.8	CCCCNc1ncc2c3ccc(N4CCNCC4)cc3c(=O)n([C@H]3CC[C@H](O)CC3)c2n1 [Compound 83, trans-3-(Butylamino)-5-(4-hydroxycyclohexyl)-8-(piperazin-1-yl)pyrimido[4,5-c]isoquinolin-6(5H)-one]
288	CCCCNc1ncc2c3ccc(N4CCNCC4)cc3c(=O)n(C3CCC(=O)CC3)c2n1 [Compound 84, 3-(Butylamino)-5-(4-oxocyclohexyl)-8-(piperazin-1-yl)pyrimido[4,5-c]isoquinolin-6(5H)-one]
221	CN1CCN(c2ccc3c(c2)c(=O)n([C@H]2CC[C@H](O)CC2)c2nc(NC4CC(F)(F)C4)ncc32)CC1 [Compound 85, trans-3-((3,3-Difluorocyclobutyl)amino)-5-(4-hydroxycyclohexyl)-8-(4-methylpiperazin-1-yl)pyrimido[4,5-c]isoquinolin-6(5H)-one]
19.9	CCCCNc1ncc2c3ccc(N4CCN(C)CC4)cc3c(=O)n(C3CCC(C)(O)CC3)c2n1 (stereo not drawn) [Compound 86, trans-3-(Butylamino)-5-(4-hydroxy-4-methylcyclohexyl)-8-(4-methylpiperazin-1-yl)pyrimido[4,5-c]isoquinolin-6(5H)-one]
115	CN1CCN(c2ccc3c(c2)c(=O)n([C@H]2CC[C@H](O)CC2)c2nc(NCC4CC4)ncc32)CC1 [Compound 87, trans-3-((Cyclopropylmethyl)amino)-5-(4-hydroxycyclohexyl)-8-(4-methylpiperazin-1-yl)pyrimido[4,5-c]isoquinolin-6(5H)-one]
51	CCCCNc1ncc2c3ccc(N4CCN(C)CC4)cc3c(=O)n(C3CC4(CC(O)C4)C3)c2n1 (stereo not shown) [Compound 88, 3-(Butylamino)-5-(6-hydroxyspiro[3.3]heptan-2-yl)-8-(4-methylpiperazin-1-yl)pyrimido[4,5-c]isoquinolin-6(5H)-one]
152	CCCCNc1ncc2c3ccc(N4CCN(C)CC4)cc3c(=O)n([C@H]3CC[C@@](C)(O)CC3)c2n1 [Compound 89, cis-3-(Butylamino)-5-(4-hydroxy-4-methylcyclohexyl)-8-(4-methylpiperazin-1-yl)pyrimido[4,5-c]isoquinolin-6(5H)-one]
13.1	CCCCNc1ncc2c3ccc(N4CCN(C)[C@H](C)C4)cc3c(=O)n([C@H]3CC[C@H](O)CC3)c2n1 [Compound 90, trans-3-(Butylamino)-8-((R)-3,4-dimethylpiperazin-1-yl)-5-(4-hydroxycyclohexyl)pyrimido [4,5-c]isoquinolin-6(5H)-one]
3910	CCC1(CNc2ncc3c4ccc(N5CCN(C)CC5)cc4c(=O)n([C@H]4CC[C@H](O)CC4)c3n2)CCC1 [Compound 91, trans-3-(((1-Ethylcyclobutyl)methyl)amino)-5-(4-hydroxycyclohexyl)-8-(4-methylpiperazin-1-yl)pyrimido[4,5-c]isoquinolin-6(5H)-one]
38.8	CN1CCN(c2ccc3c(c2)c(=O)n([C@H]2CC[C@H](O)CC2)c2nc(NCC4CCC4)ncc32)CC1 [Compound 92, trans-3-((Cyclobutylmethyl)amino)-5-(4-hydroxycyclohexyl)-8-(4-methylpiperazin-1-yl)pyrimido[4,5-c]isoquinolin-6(5H)-one]
358	CCC(F)(F)CNc1ncc2c3ccc(N4CCN(C)CC4)cc3c(=O)n([C@H]3CC[C@H](O)CC3)c2n1 [Compound 93, trans-3-((2,2-Difluorobutyl)amino)-5-(4-hydroxycyclohexyl)-8-(4-methylpiperazin-1-yl)pyrimido[4,5-c]isoquinolin-6(5H)-one]
1100	CCC1(CNc2ncc3c4ccc(N5CCN(C)CC5)cc4c(=O)n([C@H]4CC[C@H](O)CC4)c3n2)CC1 [Compound 94, trans-3-(((1-Ethylcyclopropyl)methyl)amino)-5-(4-hydroxycyclohexyl)-8-(4-methylpiperazin-1-yl)pyrimido[4,5-c]isoquinolin-6(5H)-one]
3920	CN1CCN(c2ccc3c(c2)c(=O)n([C@H]2CC[C@H](O)CC2)c2nc(NCCCC(F)(F)F)ncc32)CC1 [Compound 95, trans-5-(4-Hydroxycyclohexyl)-8-(4-methylpiperazin-1-yl)-3-((4,4,4-trifluorobutyl)amino)pyrimido [4,5-c]isoquinolin-6(5H)-one]
41.4	CN1CCN(c2ccc3c(c2)c(=O)n([C@H]2CC[C@H](O)CC2)c2nc(NCCC4CC4)ncc32)CC1 [Compound 96, trans-3-((2-Cyclopropylethyl)amino)-5-(4-hydroxycyclohexyl)-8-(4-methylpiperazin-1-yl)pyrimido[4,5-c]isoquinolin-6(5H)-one]
69.1	CN1CCN(c2ccc3c(c2)c(=O)n(C2CCC(C)(O)CC2)c2nc(NCC4CC4)ncc32)CC1 (stereo not drawn) [Compound 97, trans-3-((Cyclopropylmethyl)amino)-5-(4-hydroxy-4-methylcyclohexyl)-8-(4-methylpiperazin-1-yl)pyrimido[4,5-c]isoquinolin-6(5H)-one]
35.7	CN1CCN(c2ccc3c(c2)c(=O)n([C@H]2CC[C@](C)(O)CC2)c2nc(NCCC4CC4)ncc32)CC1 [Compound 98, trans-3-((2-Cyclopropylethyl)amino)-5-(4-hydroxy-4-methylcyclohexyl)-8-(4-methylpiperazin-1-yl)pyrimido[4,5-c]isoquinolin-6(5H)-one]
94.8	O=c1c2cc(N3CCC(N4CCCC4)CC3)ccc2c2cnc(NCC3CC3)nc2n1[C@H]1CC[C@H](O)CC1 [Compound 99, trans-3-((Cyclopropylmethyl)amino)-5-(4-hydroxycyclohexyl)-8-(4-(pyrrolidin-1-yl)piperidin-1-yl)pyrimido[4,5-c]isoquinolin-6(5H)-one]
